The source of these data is patent US8168596B2, “Use of cycloartane compounds for treating arthritis” (NuLiv Holding Inc., priority 2008, dated 2012).

In assay [1] the test system is TIMP1 mRNA. Put plainly: RT-PCR of TIMP1 mRNA expression in SW1353 cells. Format: cell-based, human. The settings on record: for TIMP1 mRNA expression after AS4 treatment followed by PMA: then 100 ng/mL PMA 24 h; for TIMP mRNA expression after only AS4 treatment: 24 h, no PMA. As for the experimental part: First of all, the interaction between TIMP1 mRNA expression and MMP1 mRNA expression in human SW1353 cell line after only AS4 treatment was studied. […] The SW1353 cells were then collected for RT-PCR analysis.
In a second testing, the effect of AS4 treatment followed by PMA treatment was also studied. The SW1353 cells were first treated with astragaloside IV (AS4) at a concentration of 0.01 μM, 0.1 μM, or 1 μM, followed by incubation for 24 hours. Then PMA was added into each well, followed by incubation for 24 hours. These SW1353 cells were also collected for RT-PCR analysis in the end of the second testing.
Total RNAs were isolated from the cultured human cells using NucleoSpin RNAII Kit (Macherey-Nagel Inc., PA, USA). Five μg of RNA was reverse transcribed in a total 20 μl transcription mixture. The reaction tube containing primers (oligo(dT)), RNA, 10 mM dNTP Mix, and DEPC-treated water was first incubated at 65° C. for 5 minutes. Eight μl master reaction mixture containing 4 μl 5× cDNA synthesis Buffer, 1 μl 0.1 M DTT, 1 μl RNase OUT™ (40U/μl), 1 μl DEPC-Treated water, and 1 μl SuperScript™II was then added into the reaction tube. The reaction tube was then incubated at 50° C. for 60 minutes, followed by incubation at 85° C. for 5 minutes. Finally, 1 μl RNase H was added at 37° C. and the reaction tube was incubated for 20 minutes. The resulting cDNA was further amplified by PCR. The relevant primers for the following PCR reaction were listed below.
(ii) the TIMP1 forward primer is 5′-AATTCCGACCTCGTCATCAG-3′ (SEQ ID NO: 3) and the TIMP1 reverse primer is 5′-TGCAGTTTTCCAGCAATGAG-3′ (SEQ ID NO: 4); and
In addition, the PCR reaction of MMP1 cDNA was preformed as follows: 95° C. for 5 min, followed by 35 cycles of 94° C. for 30 sec, 60° C. for 30 sec, and 72° C. for 30 sec, and then 72° C. for 10 min followed by maintaining at 4° C. Similarly, the PCR reaction of TIMP1 cDNA was performed as follows: 94° C. for 5 min, followed by 35 cycles of 94° C. for 30 sec, 60° C. for 30 sec, and 72° C. for 30 sec, and then 72° C. for 10 min followed by maintaining at 4° C. The PCR reaction of GAPDH cDNA was performed as follows: 94° C. for 5 min, followed by 18 cycles of 94° C. for 30 sec, 54° C. for 30 sec, and 72° C. for 30 sec, and then 72° C. for 30 sec followed by maintaining at 4° C. These PCR products were analyzed by electrophoresis on a 1.5% gel.

The test system of assay [2] is MMP-1. Nature of the assay: Western blot of MMP-1 in PMA- or IL-1β-pre-treated SW1353 cells (Example 6). The class given is cell-based, human. The settings on record: 48 h. The protocol: The cells were then plated on 6-cm dishes at a density of 1×10^6 cells/dish for 24 hours prior to any treatment. At the beginning of the experiment, the cells were pre-treated with 100 ng/mL PMA or 10 ng/mL IL-1β for 24 hours. The cells were then treated 0.1 μM Dexamethasone with, various astragaloside compounds (0.1 μM) or extracts of Astragalus membranaceous (1 μg/mL) at indicated dosages for another 48 hours. For control sample, 0.1% DMSO was used as a negative control for these experiments. The conditioned culture mediums were then centrifuged, 2-fold concentrated and collected for assay of collagens or MMPs secreted into the culture medium.
Western blotting analysis was carried out on both cultured medium and cell lysates, as follows. The cells were washed and lysed in 0.2 mL of lysis buffer (1% NP-40, 50 mM Tris-HCl, pH 7.4, 180 mM NaCl, 1 mM EDTA, 1 mM PMSF, 1 mM NaF, 10 mM Na3VO4) for 30 min at 4° C. After centrifuging at 17500 g for 15 min, the supernatants of cell lysate were also collected. Protein concentration of the samples were measured using the bicinchoninic acid (BCA) protein assay kit according to the manufacturer's protocol (Pierce, Rockford, Ill., USA). Equal amount of protein samples of concentrated conditioned medium (100 μg) or cell lysate supernatants (50 μg) were mixed with an appropriate volume of 4×SDS sampling buffer and separated by 8% SDS-PAGE gel. The protein bands separated in the SDS-PAGE gel were blotted onto a polyvinylidene fluoride (PVDF) membrane. The blotted PVDF membrane was washed twice and blocked in freshly prepared Tris-buffered saline (TBS) containing 0.1% Tween-20 and 7% skim milk (TBST) for 2 hours at room temperature. The PVDF membrane was then incubated with either antibodies against collagen I and III or the housekeeping protein α-tubulin (Santa Cruz Biotechnology, Santa Cruz, Calif.) for 18 hours at 4° C. Horseradish peroxidase-conjugated anti-goat antibody was used as secondary antibody. Signals were visualized by an enhanced chemiluminescence kit (Clonetech, Palo Alto, Calif., USA) followed by exposure to X-ray films.

In the case of `CC(C)(O)[C@@H]1CC[C@](C)([C@H]2[C@@H](O)C[C@@]3(C)[C@@H]4C[C@H](O[C@@H]5O[C@H](CO)[C@@H](O)[C@H](O)[C@H]5O)[C@H]5C(C)(C)[C@@H](O[C@@H]6OC[C@@H](O)[C@H](O)[C@H]6O)CC[C@@]56C[C@@]46CC[C@]23C)O1` [AS4, Astragaloside IV], the entries for the “TIMP1 mRNA expression after AS4 treatment followed by PMA” value in assay [1] (AS4 0.01 μM 24 h), in assay [1] (AS4 0.1 μM 24 h) and in assay [1] (AS4 1 μM 24 h) were 1.36, 1.34 and 1.31, respectively. The “TIMP mRNA expression after only AS4 treatment” value was found to be 0.87 in assay [1] (AS4 0.01 μM), 0.90 in assay [1] (AS4 0.1 μM) and 0.84 in assay [1] (AS4 1 μM). The “MMP-1, Western blot, relative to Ctrl 1.00” value in assay [2] (IL-1β-pre-treated SW1353 cell extract, compounds 0.1 μM) is given as 0.22; in assay [2] (PMA-pre-treated SW1353 cell extract, 0.1 μM) it was 0.74.
